Reference: ChEMBL document CHEMBL5120876, “Design, synthesis and biological evaluation of novel indole derivatives as gut-selective NaPi2b inhibitors” (Bioorg Med Chem, 2022)
pIC50: −log10 of the molar value. Values after ≈ are worked out from the molar mass of the structure shown. Active and inactive are the calls of the source. The calls are words filed in the database; no cut-off is given here.

Tests used:
[1] = target: T1, Sodium-dependent phosphate transport protein 2B (Homo sapiens, UniProt O95436); experiment: Inhibition of human NaPi2b expressed in CHO-K1 cells assessed as reduction in [33P] uptake preincubated with compound for 30 mins followed by [33P]O4 addition and measured after 30 mins by TopCount liquid scintillation counting method; format: cell-based
T1 sequence (O95436 whole entry): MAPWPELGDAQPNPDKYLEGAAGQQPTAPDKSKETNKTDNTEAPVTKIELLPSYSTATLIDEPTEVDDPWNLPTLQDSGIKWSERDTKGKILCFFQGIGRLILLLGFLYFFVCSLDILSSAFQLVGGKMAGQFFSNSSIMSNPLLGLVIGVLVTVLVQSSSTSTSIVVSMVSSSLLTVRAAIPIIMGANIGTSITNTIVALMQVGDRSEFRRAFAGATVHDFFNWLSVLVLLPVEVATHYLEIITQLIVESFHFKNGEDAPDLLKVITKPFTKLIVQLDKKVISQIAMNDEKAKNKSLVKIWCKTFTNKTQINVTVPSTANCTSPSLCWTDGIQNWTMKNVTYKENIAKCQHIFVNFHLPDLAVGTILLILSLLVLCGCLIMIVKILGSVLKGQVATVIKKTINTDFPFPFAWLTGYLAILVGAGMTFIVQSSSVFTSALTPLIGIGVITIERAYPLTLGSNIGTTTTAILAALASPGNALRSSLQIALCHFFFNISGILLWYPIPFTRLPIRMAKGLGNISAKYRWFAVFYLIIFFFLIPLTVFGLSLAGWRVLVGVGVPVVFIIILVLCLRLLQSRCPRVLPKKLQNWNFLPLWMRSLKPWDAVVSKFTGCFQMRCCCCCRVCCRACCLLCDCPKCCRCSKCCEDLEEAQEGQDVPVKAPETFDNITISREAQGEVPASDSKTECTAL

[2] = AUC (0 to t) in Sprague-Dawley rat at 1.17 mg/kg, iv administered as single dose by LC-MS analysis; format: ADME, organism-based; parameters: dose 1.17 mg/kg, route iv; settings: in vivo
[3] = Drug excretion in Sprague-Dawley rat feces assessed as cumulative amount of unchanged drug excreted at 10 mg/kg, po administered as single dose and measured within 24 hrs by LC-MS analysis; format: ADME, organism-based; settings: faeces, read-out: Ae
[4] = Oral bioavailability in Sprague-Dawley rat at 10 mg/kg administered as single dose by LC-MS analysis; format: ADME, organism-based; settings: in vivo
[5] = AUC (0 to t) in Sprague-Dawley rat at 10 mg/kg, po administered as single dose by LC-MS analysis; format: ADME, organism-based; parameters: dose 10 mg/kg, route po; settings: in vivo
[6] = Solubility of the compound in fed state simulated intestinal fluid at pH 5.0 incubated for 24 hrs by HPLC analysis; format: physicochemical
[7] = target: T2, Sodium-dependent phosphate transport protein 2B (Rattus norvegicus, UniProt Q9JJ09); experiment: Inhibition of rat NaPi2b expressed in CHO-K1 cells assessed as reduction in [33P] uptake preincubated with compound for 30 mins followed by [33P]O4 addition and measured after 10 mins by TopCount liquid scintillation counting method; format: cell-based
T2 sequence (Q9JJ09 whole entry): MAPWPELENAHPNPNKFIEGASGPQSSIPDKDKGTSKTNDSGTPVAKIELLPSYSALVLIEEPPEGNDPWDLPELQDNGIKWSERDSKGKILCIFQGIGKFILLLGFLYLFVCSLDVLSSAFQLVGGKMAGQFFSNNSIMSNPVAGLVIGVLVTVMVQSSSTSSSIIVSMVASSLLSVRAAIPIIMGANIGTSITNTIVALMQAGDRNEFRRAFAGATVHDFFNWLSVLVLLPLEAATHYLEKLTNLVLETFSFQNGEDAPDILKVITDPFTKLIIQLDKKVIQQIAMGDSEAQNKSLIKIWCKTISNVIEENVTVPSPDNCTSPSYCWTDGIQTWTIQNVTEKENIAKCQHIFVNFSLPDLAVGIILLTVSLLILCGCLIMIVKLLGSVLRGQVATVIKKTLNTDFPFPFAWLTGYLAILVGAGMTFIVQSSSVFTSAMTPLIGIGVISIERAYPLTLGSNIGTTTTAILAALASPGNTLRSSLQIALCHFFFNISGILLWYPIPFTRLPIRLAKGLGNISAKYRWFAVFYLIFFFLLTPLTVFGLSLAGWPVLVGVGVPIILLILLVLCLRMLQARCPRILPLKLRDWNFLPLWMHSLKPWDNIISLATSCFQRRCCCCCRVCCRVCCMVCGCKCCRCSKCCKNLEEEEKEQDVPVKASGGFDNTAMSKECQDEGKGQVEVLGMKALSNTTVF

[8] = Drug concentration in Sprague-Dawley rat intestine at 10 mg/kg, po administered as single dose; format: ADME, organism-based; settings: in vivo
[9] = Solubility of the compound in fasted state simulated intestinal fluid at pH 6.5 incubated for 24 hrs by HPLC analysis; format: physicochemical
[10] = Cmax in Sprague-Dawley rat at 10 mg/kg, po administered as single dose by LC-MS analysis; format: ADME, organism-based; parameters: dose 10 mg/kg, route po; settings: in vivo
Rattus norvegicus = experiment: In vivo inhibition of NaPi2b in Sprague-Dawley rat assessed as reduction in phosphate absorption at 10 mg/kg, po preincubated for 5 mins followed by addition of NaH2PO4 containing 32P-phosphate solution and measured after 15 to 30 mins by liquid scintillation counting method; format: functional, organism-based; settings: time 20.0 min
[11] = target: T1, Sodium-dependent phosphate transport protein 2B; experiment: Inhibition of NaPi2b (unknown origin)
[12] = AUC (0 to t) in Sprague-Dawley rat at 1 mg/kg, iv administered as single dose by LC-MS analysis; format: ADME, organism-based; parameters: dose 1 mg/kg, route iv; settings: in vivo
[13] = target: T3, Sodium-dependent phosphate transport protein 2B (Homo sapiens) (UniProt O95436); experiment: Inhibition of human NaPi2b at 1 uM relative to control
T3 sequence (whole entry): T1 sequence (O95436 whole entry)

CN(C(=O)CCC(=O)O)C1CCN(Cc2cccc(C(=O)Nc3[nH]c4ccccc4c3C(=O)Nc3ccc(CCCc4ccc(C(=O)O)cc4)cc3)c2)C1 (stereo not given)
pIC50 [1]: 5.99

CCC(CC)N(CCN(C)C(=O)CNS(=O)(=O)c1c[nH]c(C(N)=O)c1)Cc1cccc(C(=O)Nc2[nH]c3ccccc3c2C(=O)Nc2ccc(CCCc3ccc(C(=O)O)cc3)cc2)c1
pIC50 [1]: 6.40

CCC(CC)N(CCN(C)C(=O)CCC(=O)NCCOCCOCCOCCO)Cc1cccc(C(=O)Nc2[nH]c3ccccc3c2C(=O)Nc2ccc(CCCc3ccc(C(=O)O)cc3)cc2)c1
AUC(0-t) [2]: 170 ng·h/mL
pIC50 [1]: 6.78
dose excreted at 24 h [3]: 58.8%
bioavailability [4]: 1.1%
AUC(0-t) [5]: 15.4 ng·h/mL
solubility at 24 h [6]: > 479 µg/mL
pIC50 [7]: 7.01
Ct [8]: 34 µg/mL
solubility at 24 h [9]: > 482 µg/mL
Cmax [10]: 15.5 ng/mL
inhibition (Rattus norvegicus): Active

CCCC(CCC)N(CCN(C)C(=O)CCC(=O)O)Cc1cccc(C(=O)Nc2[nH]c3ccccc3c2C(=O)Nc2ccc(CCCc3ccc(C(=O)O)cc3)cc2)c1
pIC50 [1]: 7.11

CCC(CC)N(CCN(C)S(=O)(=O)NC(=O)OCC(=O)O)Cc1cccc(C(=O)Nc2[nH]c3ccccc3c2C(=O)Nc2ccc(CCCc3ccc(C(=O)O)cc3)cc2)c1
pIC50 [1]: 6.57

CCN(CC)c1ccc(NC(=O)c2cccc(CSCCOCCOCCOCCOCCOCCOCCOCCOCCC(=O)O)c2)c(-c2cc(C(=O)NCc3cccc(C(F)(F)F)c3)ccn2)c1
pIC50 [11]: 6.00

CCC(CC)N(CCN(C)C(=O)NCC(=O)O)Cc1cccc(C(=O)Nc2[nH]c3ccccc3c2C(=O)Nc2ccc(CCCc3ccc(C(=O)O)cc3)cc2)c1
pIC50 [1]: 6.43

CN(Cc1cccc(C(=O)Nc2[nH]c3ccccc3c2C(=O)Nc2ccc(CCCc3ccc(C(=O)O)cc3)cc2)c1)C1CCN(C(=O)CCC(=O)O)C1 (stereo not given)
pIC50 [1]: 5.59

CCC(CC)N(CCN(C)C(=O)CCC(=O)O)Cc1cccc(C(=O)Nc2[nH]c3ccccc3c2C(=O)Nc2ccccc2)c1
pIC50 [1]: 6.27

CCC(CC)N(CCN(C)C(=O)CCC(=O)O)Cc1cccc(C(=O)Nc2[nH]c3ccccc3c2C(=O)Nc2ccc(Cc3ccc(C(=O)O)cc3)cc2)c1
pIC50 [1]: 6.35

CCN([C@H]1CC[C@H](C(=O)O)CC1)S(=O)(=O)c1cccc(C(=O)Nc2[nH]c3ccccc3c2C(=O)Nc2ccc(CCCc3ccc(C(=O)O)cc3)cc2)c1
pIC50 [1]: 6.59

CCC(CC)N(CCN(C)C(=O)CCC(=O)NCCOCCOCCOCCC(=O)O)Cc1cccc(C(=O)Nc2[nH]c3ccccc3c2C(=O)Nc2ccc(CCCc3ccc(C(=O)O)cc3)cc2)c1
pIC50 [1]: 6.27

CCC(CC)N(CCN(C)C(=O)CCC(=O)O)Cc1cccc(C(=O)Nc2[nH]c3ccccc3c2C(=O)Nc2ccc(CCCc3ccc(C(=O)O)cc3)cc2)c1
pIC50 [1]: 7.15
dose excreted at 24 h [3]: 68.1%
bioavailability [4]: 13.1%
AUC(0-t) [5]: 1090 ng·h/mL
solubility at 24 h [6]: 264 µg/mL (≈ 341 µM)
pIC50 [7]: 7.55
Ct [8]: 39 µg/mL
solubility at 24 h [9]: 103 µg/mL (≈ 133 µM)
Cmax [10]: 568 ng/mL
AUC(0-t) [12]: 834 ng·h/mL

CCC(CC)N(CCN(C)C(=O)CN1C(=O)NC2NC(=O)NC21)Cc1cccc(C(=O)Nc2[nH]c3ccccc3c2C(=O)Nc2ccc(CCCc3ccc(C(=O)O)cc3)cc2)c1 (stereo not given)
pIC50 [1]: 6.40

CC(C)N(CCN(C)C(=O)CCC(=O)O)Cc1cccc(C(=O)Nc2[nH]c3ccccc3c2C(=O)Nc2ccc(CCCc3ccc(C(=O)O)cc3)cc2)c1
pIC50 [1]: 6.45

CCC(CC)N(CCN(C)C(=O)CCC(=O)O)Cc1cccc(C(=O)Nc2sc3c(c2C(=O)Nc2ccc(CCc4ccc(C(=O)O)cc4)cc2)CCCC3)c1
inhibition [13]: 87%
